Patent publication US6753182B1, “Cryopreservation of plant cells” (Phyton, Inc., priority 1995, dated 2004)
Like-named read-outs stand apart in the source and are kept apart here.

How the values were obtained:
[1] = test system: Taxus cells; assay: Post-thaw viability of cryopreserved Taxus cells (FDA / trypan blue staining); conditions: for Survival: 3% mannitol, vitrified 40/30 ethylene glycol/sorbitol, post-thaw
Experimental: Culturing cells at high density maximizes the productivity of the cell culture process. […] Cell viability was determined by staining with a 0.05% fluorescein diacetate (FDA) in acetone (J. M. Widholm, Stain Technol 47:189-94, 1972) followed by counting the number of green fluorescein cells upon excitation with blue light in a fluorescence microscope.
After 3 days of incubation in growth medium with mannitol, cells were cold acclimated at 4° C. for 3 hours. Acclimated cells were harvested and transferred to 4 ml cryovials containing a cold vitrifying solution of 40/30 wt % ethylene glycol/sorbitol in media. The vials were incubated at 4° C. for 3 minutes and frozen by immersion into liquid nitrogen. Vials were maintained in liquid nitrogen for at least 10 minutes before use in the thawing experiments.
Vials of frozen cells were removed from liquid nitrogen storage and agitated at 40° C. until the contents are liquefied (1-2 minutes). The liquefied cells were then washed 5 to 6 times with sterile media containing 1 M sorbitol, 3 times with media containing 0.5 M sorbitol media, 3 times with 0.1 M sorbitol media, and 3 times with sorbitol free media. Washing was performed by resuspension of cells in wash media, centrifugation at 50×g for 2 minutes and aspiration of wash media from the cell pellet. Cell viability was determined immediately after thawing.
Various osmotic agents in growth medium were evaluated to determine their effects on the survival of Taxus species cells precultured with the agents, after the preculture period and after thawing of the cryoprotected and frozen Taxus cell suspensions. Cells of three-day cell culture suspensions were precultured in growth medium containing various osmotic agents prior to cryoprotection. Cryoprotected cells were frozen and stored in liquid nitrogen for a minimum of one hour. Viability tests were performed at the end of the preculture period (control) and immediately after thawing of the cryoprotected and frozen cell.
Taxus cells were harvested from cell culture and the biomass resuspended in growth medium containing mannitol at a concentration of 3% for one day or three-days at room temperature. Loaded cells were incubated at 4° C. for 3 hours and transferred to 4 ml cryovials containing cold vitrifying solution comprising 40/30 weight percent ethylene glycol/sorbitol in culture medium. The vials were incubated at 4° C. for three minutes and frozen by liquid nitrogen immersion. Cells contained in the vials were maintained in liquid nitrogen for at least 10 minutes.
Cryopreserved cells were thawed and their viability was determined by FDA and tryptan blue staining procedures.
Cultured Tarus cells were harvested and resuspended in fresh growth medium containing 3% mannitol for 3 days. Cells were cold acclimated for 3 hours and transferred to cryovials containing vitrification solution. Cell suspensions were frozen by liquid nitrogen immersion. Liquid nitrogen frozen cells were thawed by agitating the cryovials in a 40° C. water bath for 1-2 minutes.

[2] = test system: microtubles of mammalian cells; conditions: cited from earlier work
[3] = test system: refractory ovarian, breast and other cancers; conditions: clinical trials; cited from earlier work
[4] = test system: Taxus cells; assay: Regrowth of Taxus cells after thawing and osmotic adjustment; type: cell-based, Taxus species; conditions: after thawing
[5] = test system: Taxus species cell line KEIR; assay: Cell viability and growth before and after cryopreservation, line KEIR; type: cell-based; conditions: 3% mannitol 3 days, before freezing
Experimental: (§1) Six to seven day old cell suspensions of each cell line were harvested and the biomass resuspended in fresh growth medium containing 3% mannitol. Cells were incubated for 3 days at room temperature and thereafter the loaded cells suspensions were incubated at 4° C. for from 3 hours. Cold acclimated cells were transferred to 4 ml cryovials containing a cold vitrification solution of ethylene glycol/sorbitol 40/30 wt %. The vitrification solution and cells were gently mixed and the vials were incubated at […] for 3 minutes. Thereafter, the cell suspensions were frozen by liquid nitrogen immersion for at least 10 minutes.
(§2) After freezing, the cells were thawed by transferring the frozen vials from liquid nitrogen to a 40° C. water bath for 1-2 minutes. Post-thaw cell viability was determined by FDA staining assay. Cells were washed 5-6 times with cold sterile 1M sorbitol media and resuspended in fresh 1 M in medium.
(§3) The cell suspensions free from toxic cryoprotectants were then each separately filtered using a buchner funnel and Whatmann 541 filter paper under sterile conditions. For each cell suspension, the filter with cells was layered on semisolid growth medium containing 0.5M sorbitol and equilibrated for 30 minutes at room temperature. Paper containing cells was transferred to solid growth medium containing 0.1M sorbitol and incubated for 24 hours. […]

[6] = test system: Taxus species cell line 647; assay: Cell viability and growth before and after cryopreservation, line 647; type: cell-based; conditions: 3% mannitol 3 days, before freezing
Experimental: as §1, §2, §3

[7] = test system: Taxus suspension cultures (KS1A); assay: Viability of Taxus KS1A cells at end of preculture period; type: cell-based, Taxus species
Experimental: (§4) Cells of Taxus suspension cultures (KS1A) were harvested and precultured with various osmotic agents in the medium. Osmotic agents tested include trehalose, proline, sorbitol (0.15 M-0.8 M), sucrose (2-20%) and mannitol (0.16 M). Viability was evaluated for each cell suspension at the end of the preculture period and immediately after thawing. Regrowth was evaluated after post-thaw osmotic adjustment. The vitrification solutions used were ethylene glycol/sorbitol/pectin and ethylene glycol/sorbitol at 40/30 weight percent in culture medium.

[8] = test system: Taxus species cell line 12-14; assay: Cell viability and growth before and after cryopreservation, line 12-14; type: cell-based; conditions: 3% mannitol 3 days, before freezing
Experimental: as §1, §2, §3

[9] = test system: Taxus species cell line 1224; assay: Cell viability and growth before and after cryopreservation, line 1224; type: cell-based; conditions: 3% mannitol 3 days, before freezing
Experimental: as §1, §2, §3

[10] = test system: Taxus species cell line KS1A; assay: Cell viability and growth before and after cryopreservation, line KS1A; type: cell-based; conditions: 3% mannitol 3 days, before freezing
Experimental: as §1, §2, §3

[11] = test system: Taxus species cell line 12-6; assay: Cell viability and growth before and after cryopreservation, line 12-6; type: cell-based; conditions: 3% mannitol 3 days, before freezing
Experimental: as §1, §2, §3

[12] = test system: Taxus species cell line 1220; assay: Cell viability and growth before and after cryopreservation, line 1220; type: cell-based; conditions: 3% mannitol 3 days, before freezing
Experimental: as §1, §2, §3

[13] = test system: Taxus cells; assay: Viability of Taxus cells at end of preculture period (before freezing); type: cell-based, Taxus species; conditions: end of preculture period with the osmotic agent, not frozen
[14] = test system: Taxus species cell line KS1A; assay: Post-thaw viability of cryopreserved Taxus cell line KS1A (FDA staining); type: cell-based
Experimental: as §4
Six to seven day cell suspensions of Taxus species cell line KS1A were pretreated with 3% mannitol for three days at room temperature. Loaded cells were acclimated to the cold by incubating the flasks at 4° C. for 3 hours. Cold acclimated cells were transferred to 4 ml cryovials and cold vitrification solution was added to each and mixed. After vitrification at 4° C. for three minutes, cells were frozen liquid nitrogen immersion. Vials were maintained in liquid nitrogen for at least 10 minutes.
Cryopreserved cells were thawed by transferring vials from liquid nitrogen and agitated in a 40° C. water bath for 1-2 minutes. Post-thaw viability was determined by FDA staining assay.

[15] = test system: Taxus cells; assay: Regrowth of Taxus cells after thawing and osmotic adjustment; type: cell-based, Taxus species; conditions: after thawing; remark: listed apart in the source
Experimental: Cell viability was determined immediately after thawing. The summary of multiple experiments is listed below.
Six to seven day old cell suspensions in growth medium were harvested and the cell biomass resuspended in fresh growth medium containing 0.06 M, 0.12 M, 0.15 M, 0.29 M and 0.58 M sucrose. Cells were cryopreserved, frozen, thawed and osmotically adjusted accordingly. Cell viability was determined immediately after thawing.

[16] = cryoprotectant in vitrification solution: DMSO 5%-30%, propylene glycol 15%, glycerol 20%-30%, PEG-8000 10%, ethylene glycol 20%-50%, 3% mannitol 3 days, after −196° C. storage
[17] = end of preculture with osmotic agent (sorbitol 0.15 M-0.8 M, sucrose 2%-20%, mannitol 0.16 M)
[18] = cryoprotectants ethylene glycol/sorbitol 40/30 weight percent, immediately after thawing, sorbitol 0.15 M-0.8 M, sucrose 2%-20%, mannitol 0.16 M

For OCCO [Ethylene Glycol, ethylene glycol], the Viability [1, 16] was 25%-80% and the Viability ([1]; cryoprotectant in vitrification solution: DMSO 5%-30%, propylene glycol 15%, glycerol 20%-30%, PEG-8000 10%, ethylene glycol 20%-50%, 3% mannitol 3 days, after −196° C. storage, listed as ethylene glycol) was “highest viability”.

With C[S+](C)[O-] [DMSO, dimethylsulfoxide] the Viability [1, 16] was “≦15%”.

Work on CC(O)CO (centres unmarked) [Propylene Glycol, propylene glycol] yielded a Viability [1, 16] of 0%.

In the case of CC(=O)O[C@H]1C(=O)[C@@]2(C)[C@H]([C@H](OC(=O)c3ccccc3)[C@]3(O)C[C@H](OC(=O)[C@H](O)[C@@H](NC(=O)c4ccccc4)c4ccccc4)C(C)=C1C3(C)C)[C@]1(OC(C)=O)CO[C@@H]1C[C@@H]2O [taxol], the “inhibition of the polymerization of microtubles” value [2] is given as “effectively inhibits” and the clinical efficacy [3] is given as “extremely effective”.

Molecule OCC(O)CO [Glycerol, glycerol] has a Viability [1, 16] of 0%.

PEG-8000 showed a Viability [1] of 0%.

For OC[C@@H](O)[C@@H](O)[C@H](O)[C@H](O)CO [Mannitol, mannitol], the Regrowth ([4]; 0.16 M mannitol preculture 3 days) was “vigorous”, the Regrowth ([4]; 0.22 M mannitol preculture 3 days) was “slight” and the Regrowth ([4]; 0.33 M mannitol preculture 3 days) was “slight”. The Regrowth ([4]; 0.44 M mannitol preculture 3 days) was “slight”, the “Viability (preculture)” value [5] was “≧95%” and the “Viability (preculture)” value [6] was “≧95%”. For the same molecule, the Viability [7, 17] was 75-95%, the “Viability (preculture)” value [8] was “≧95%” and the “Viability (preculture)” value [9] was “≧95%”. For the same molecule, the “Viability (preculture)” value [10] was “≧95%”, the “Survival (Viability) Frozen” value [1] was “highest percent viability” and the Survival ([1]; 1 day of preculture) was 50%. The Survival ([1]; 3 days of preculture) was 40-80%, the Survival ([1]; 3 days of preculture, listed as mannitol) was “significantly higher” and the “Survival (Viability) Frozen” value ([1]; Taxus species) was 40-80%. For the same molecule, the Viability ([1]; Taxus species, 3 days, 0.16 M) was 60%, the Viability ([1]; Taxus species, 3 days, 0.22 M) was 30% and the Viability ([1]; Taxus species, 3 days, 0.33 M) was 30%. For the same molecule, the Viability ([1]; Taxus species, 3 days, 0.44 M) was 20%, the “Viability (preculture)” value [11] was “≧95%” and the “Viability (preculture)” value [12] was “≧95%”. For the same molecule, the “Survival (Viability) Control” value [13] was 50-95%, the “Recovery Viability” value [14, 18] was 40-80% and the “Recovery Viability” value ([14]; cryoprotectants ethylene glycol/sorbitol 40/30 weight percent, immediately after thawing, sorbitol 0.15 M-0.8 M, sucrose 2%-20%, mannitol 0.16 M, listed as mannitol) was “highest percent viability”.

In the case of OC[C@H]1O[C@@](CO)(O[C@H]2O[C@H](CO)[C@@H](O)[C@H](O)[C@H]2O)[C@@H](O)[C@@H]1O [Sucrose, sucrose], the Viability ([7]; Taxus species) is reported as 50-95%, the “Survival (Viability) Frozen” value ([1]; Taxus species) is reported as 20-50% and the Regrowth ([15]; 0.06 M sucrose pretreatment) is reported as “slight”. The Regrowth ([15]; 0.12 M sucrose pretreatment) was “slight”, the Regrowth ([15]; 0.15 M sucrose pretreatment) was “slight” and the Regrowth ([15]; 0.29 M sucrose pretreatment) was “slight”. The Regrowth ([15]; 0.58 M sucrose pretreatment) was “slight”, the “Survival (Viability) Control” value [13] was 50-95% and the “Recovery Viability” value ([14]; Taxus species) was <10-40%.

For OC[C@H]1O[C@H](O[C@H]2O[C@H](CO)[C@@H](O)[C@H](O)[C@H]2O)[C@H](O)[C@@H](O)[C@@H]1O [Trehalose, trehalose], the “Survival (Viability) Frozen” value ([1]; Taxus species) was <15% and the “Survival (Viability) Control” value [13] was 50-95%.

In the case of O=C(O)[C@@H]1CCCN1 [Proline, proline], the Viability ([7]; Taxus species) is reported as 50-95%, the “Survival (Viability) Frozen” value ([1]; Taxus species) is reported as <15% and the “Survival (Viability) Control” value [13] is reported as <50%. The “Recovery Viability” value ([14]; Taxus species) was <15%.

With OC[C@@H](O)[C@@H](O)[C@H](O)[C@@H](O)CO [Sorbitol, sorbitol] the Regrowth ([4]; 0.15 M sorbitol pretreatment) was “none”, the Regrowth ([4]; 0.22 M sorbitol pretreatment) was “vigorous” and the Regrowth ([4]; 0.33 M sorbitol pretreatment) was “vigorous”. For the same molecule, the Regrowth ([4]; 0.44 M sorbitol pretreatment) was “vigorous”, the Regrowth ([4]; 0.80 M sorbitol pretreatment) was “slight” and the Viability [7, 17] was 50-95%. For the same molecule, the “Survival (Viability) Frozen” value ([1]; Taxus species) was 30-70%, the “Survival (Viability) Control” value [13] was 50-95% and the “Recovery Viability” value [14, 18] was 30-70%.
